This is an account of results in patent US20100093613A1, “METHODS FOR IDENTIFYING AGENTS AND THEIR USE FOR THE PREVENTION OR STABILIZATION OF FIBROSIS” (priority 2007, published 2010).

Experiment [1] deals with Fibroblasts. Briefly: BioMAP HDFT system (TGF-β), scoring of readout parameters. It counts as cell-based, human. Further details: key to PAI-1 score: 1 = modulated in desired direction, 0 = not (no penalties applied). The note with it: for PAI-1 score: HDFT, desired change decrease. From the text:
(§1) Each screened compound is scored according to its modulation of the selected readout parameters. Compounds receive a positive score (score of 1) or negative score (score of 0) for each readout parameter set forth in Table 2 that is modulated in the desired direction. […] Parameters may be penalized by making the positive score a −1 for parameters where regulation is opposite to the desired direction.
(§2) Compounds were first selected to inhibit PAI-1 in the HDFT as an indication of TBF-b signaling inhibition without being cytotoxic. […] Blank spots in Table 3 were where parameter was not assayed. Penalties were not applied for this scoring.
(§3) Cell culture. Human umbilical vein endothelial cells (HUVEC) were pooled from multiple donors, cultured according to standard methods, and plated into microtiter plates at passage 4. Cell culture medium for all systems containing HUVEC included hydrocortisone. Coronary artery smooth muscle cells (CASM3C) and umbilical artery smooth muscle cells (HSM3C) were cultured according to standard procedures. Peripheral blood mononuclear cells (PBMC) were prepared from buffy coats from normal human donors according to standard methods. Monocyte-derived macrophages were differentiated in the presence of M-CSF for 7 d according to standard procedures. Human dermal fibroblasts were pooled from 3 donors, cultured according to standard methods, and plated confluent 24 h before stimulation. Cell culture medium for all systems containing fibroblasts and keratinocytes contained low hydrocortisone. Epidermal keratinocytes and bronchial epithelial cells from 3 donors were cultured according to standard procedures and pooled when plated into microtiter plates. For keratinocyte-fibroblast co-cultures, cells were plated simultaneously 24 h before stimulation. For bronchial epithelial cell-fibroblast co-cultures, fibroblasts were plated and cultured 48 before addition of epithelial cells, then cultured another 24 hr before stimulation. Concentrations/amounts of agents added to confluent microtiter plates to build each system: cytokines (IL-1β, 1 ng/ml; TNF-α, 5 ng/ml; IFN-γ, 20 ng/ml; IL-4, 5 ng/ml), activators (SAg, 20 ng/ml; histamine, 10 μM; zymosan, 10 μg/ml; or LPS, 2 ng/ml), growth factors (TGF-β, 5 ng/ml; EGF, bFGF, and PDGF-BB, 10 ng/ml), and PBMC (7.5×10^4 cells/well) or macrophages (3.5×10^4 cells/well).
(§4) Compounds. Compounds were prepared in the solvent directed, added 1 hr before stimulation of the cells, and were present during the 24 hr stimulation period for the measurement of parameters listed in Table 2. For proliferation, compounds added 1 hr before stimulation of the cells with cytokines, and were present during the 48 to 72 hr assay. If prepared in DMSO, the final concentration of solvent was 0.1% or less.
(§5) Readout Parameter Measurements. The levels of readout parameters were measured by ELISA. Briefly, microtiter plates are treated, blocked, and then incubated with primary antibodies or isotype control antibodies (0.01-0.5 microg/ml) for 1 hr. After washing, plates were incubated with a peroxidase-conjugated anti-mouse IgG secondary antibody or a biotin-conjugated anti-mouse IgG antibody for 1 hr followed by streptavidin-HRP for 30 min. Plates were washed and developed with TMB substrate and the absorbance (OD) was read at 450 nm (subtracting the background absorbance at 650 nm). Quantitation of TNF-alpha or PGE2 in the LPS system was done using a commercially available kit according to the manufacturer's directions. Proliferation of endothelial cells (HUVEC and CAEC), smooth muscle cells (SMC and CASMC), and PBMC (T cells) was quantitated by Alamar Blue reduction or SRB.
Data analysis. Mean OD values for each parameter were calculated for compounds run in duplicate. The mean value (or single well OD value) for each parameter in a treated sample was then divided by the mean value from an appropriate control to generate a ratio.

The subject of experiment [2] is Bronchial epithelial cells. Briefly: BioMAP BE4T system (IL-4 + TNF-a), scoring of readout parameters. It counts as cell-based, human. Further details: key: 1 = modulated in desired direction, 0 = not (−1 = opposite). Particulars: for PAI-1 score: desired change decrease; for EGFR score: desired no change or increase. Here is the method:
In the “BE4T” system, bronchial epithelial cells, usually primary human bronchial epithelial cells, are cultured in the presence of TNF-α and IL-4.
as §1, §3, §4, §5
(§6) Data analysis. Mean OD values for each parameter were calculated for compounds run in duplicate. The mean value (or single well OD value) for each parameter in a treated sample was then divided by the mean value from an appropriate control to generate a ratio. All ratios were then log10 transformed. 95% significance prediction envelopes (grey shading in Figures) were calculated for historical controls.

Experiment [3] deals with Bronchial epithelial cells. Nature of the experiment: BioMAP BE3C system (IL-1β + TNF-α + IFN-γ), scoring of readout parameters. The experiment is classed as cell-based, human. The note with it: for PAI-1 score: desired change decrease; for EGFR score: desired no change or increase.
From the text: as §1, §3, §4, §5, §6

For experiment [4], the system named is Umbilical Vein Endothelial Cells. Nature of the experiment: BioMAP 3C system (IL-1β + TNF-α + IFN-γ), scoring of readout parameters. It counts as cell-based, human. Particulars: for HLA-DR score: desired change decrease; for uPAR score: desired change increase.
From the text: as §1, §3, §4, §5, §6

Experiment [5] deals with Fibroblasts. Briefly: BioMAP HDF3CT system (IL-1β + TNF-α + IFN-γ + TGF-β), scoring of readout parameters. The experiment is classed as cell-based, human.
From the text: as §1, §3, §4, §5, §6

Experiment [6] deals with human primary cells. Briefly: Total score for desired parameter modulation over the BioMAP systems of Table 1. It counts as cell-based. Particulars: penalties not applied.
From the text: as §1
The relative importance of each parameter may be weighted by the screener to select those parameters of greatest interest for a particular application.
as §2
BioMAP Systems are designed to model complex human disease biology in a practical in vitro format. This is achieved by stimulating human primary cells (single cell type or defined mixtures of cell types) such that multiple disease-relevant signaling pathways are simultaneously active. The choice of cell types and stimulations is guided by the knowledge of disease biology and mechanisms. Incorporating appropriate cell types and stimulating signaling pathways relevant to disease states allows association of biological activities detected in BioMAP Systems with disease processes. Drug effects are then recorded by measuring biologically meaningful protein readouts that provide coverage of biological space of interest (e.g., inflammation, tissue remodeling) and allow discrimination between different drug classes tested.
as §3, §4
Readout Parameter Measurements. The levels of readout parameters were measured by ELISA.

The subject of experiment [7] is Peripheral Blood Mononuclear Cells + Umbilical Vein Endothelial Cells. Briefly: BioMAP LPS system (TLR4), scoring of readout parameters. The experiment is classed as cell-based, human. The note with it: LPS (by position); desired change decrease.
From the text: as §1, §3, §4, §5, §6

Experiment [8] concerns Fibroblasts. Briefly: BioMAP HDF3CGF system (IL-1β + TNF-α + IFN-γ + EGF + bFGF + PDGFbb), scoring of readout parameters. It counts as cell-based, human. The note with it: for PAI-1 score: desired change decrease; for MMP-1 score: desired change increase; for EGFR score: desired no change or increase.
Experimental: In the “HDF-3CGF” system, dermal fibroblast cells, usually primary human dermal fibroblast cells are cultured alone or in the presence of lung epithelial cells, usually primary human lung epithelial cells, with two or more factors selected from: TNF, IL-1, IFNγ, EGF, bFGF+HSPG (heparan sulfate proteoglycan), and PDGFbb. In some embodiments three or more factors are present, four or more, five or more, or all six factors are present.
Human neonatal dermal fibroblasts (HDFn) or adult lung fibroblasts (HDFp) or fibroblasts from tissues such as liver, heart, or kidney are used. Cells are cultured at 3×10^4 cells/ml in DMEM/F12 (50/50) from Cellgro, supplemented with LSGS kit (from Cascade Biologics); fetal bovine serum, 2% v/v, hydrocortisone 100 nM, human epidermal growth factor 10 ng/ml, basic fibroblast growth factor 3 ng/ml and heparin 10 μg/ml, and penicillin/streptomycin amphotericin B solution (PSA), until confluency. Medium is replaced with DMEM/F12 with only penicillin/streptomycin amphotericin B solution (PSA), then 24 hours later, the following are applied:
After another 24, 48 or 72 hours incubation (37° C., 5% CO2) the cultures are evaluated for the following parameters: ICAM, VCAM, CD40, CD90, IP-10, MCP-1, Collagen I, Mig, m-CSF, TIMP-2, PAI-I, IL-8, Collagen III, HLA-DR, MMP-1, MMP-9, proliferation, TGF-b1, eotaxin-3, decorin, alpha-SMC, MLCK, I-TAC, EGFR, TIMP-1.
Cell culture. […] Human dermal fibroblasts were pooled from 3 donors, cultured according to standard methods, and plated confluent 24 h before stimulation. Cell culture medium for all systems containing fibroblasts and keratinocytes contained low hydrocortisone. […] Concentrations/amounts of agents added to confluent microtiter plates to build each system: cytokines (IL-1β, 1 ng/ml; TNF-α, 5 ng/ml; IFN-γ, 20 ng/ml; IL-4, 5 ng/ml), activators (SAg, 20 ng/ml; histamine, 10 μM; zymosan, 10 μg/ml; or LPS, 2 ng/ml), growth factors (TGF-β, 5 ng/ml; EGF, bFGF, and PDGF-BB, 10 ng/ml), and PBMC (7.5×10^4 cells/well) or macrophages (3.5×10^4 cells/well).

In experiment [1], `C[C@]12C=CC(=O)C=C1CC[C@@H]1[C@@H]2[C@@H](O)C[C@@]2(C)[C@H]1CC[C@]2(O)C(=O)CO` [Prednisolone] had a PAI-1 score of 0. In addition, in experiment [1] (indication of TGF-b signaling inhibition without being cytotoxic), the “inhibit PAI-1 in the HDFT system” value is “none of these inhibit PAI-1”. For the same compound, in experiment [2], the uPA score is reported as 0, the PAI-1 score is listed as 0 and the EGFR score came to 0. In experiment [3], the HLA-DR score is listed as 0, the MMP-1 score was found to be 0, the uPA score is on record as 0 and the PAI-1 score worked out at 0. Also, the EGFR score in experiment [3] stood at 0. In addition, in experiment [4], the HLA-DR score is on record as 1 and the uPAR score is on record as 0. The MMP-1 score in experiment [5] came to 0. Moreover, in experiment [6], the “Score (Fraction correctly modulated parameters out of 45-58 total)” value amounted to 0.17. Moreover, the TF score in experiment [7] was determined as 0. In experiment [8], the PAI-1 score turned out to be 0, the MMP-1 score is on record as 0 and the EGFR score stood at 0.
As for `O=c1cc(-c2ccc(O)c(O)c2)oc2cc(O)cc(O)c12` [Luteolin], the PAI-1 score in experiment [1] is reported as 1; in experiment [2], 0; in experiment [3], 0; in experiment [8], 1. The uPA score in experiment [2] and in experiment [3] was 0 throughout. In addition, the EGFR score in experiment [2], in experiment [3] and in experiment [8] was 0 each time. Also, the HLA-DR score in experiment [3] and in experiment [4] was 0 each time. The MMP-1 score in experiment [3], in experiment [5] and in experiment [8] was 0 each time. The uPAR score in experiment [4] stood at 0. In experiment [6], the “Score (Fraction correctly modulated parameters out of 45-58 total)” value was 0.36. Further, the TF score in experiment [7] amounted to 1.
The compound Antimycin A returned a PAI-1 score in experiment [1] of 1. In addition, in experiment [2], the uPA score came out at 0, the PAI-1 score was 1 and the EGFR score turned out to be 0. Besides, in experiment [3], the HLA-DR score worked out at 0, the MMP-1 score was determined as 0, the uPA score was determined as 0 and the PAI-1 score is on record as 1. The EGFR score in experiment [3] is listed as 0. In experiment [4], the HLA-DR score is 0 and the uPAR score worked out at 0. In addition, the MMP-1 score in experiment [5] turned out to be 0. In addition, the “Score (Fraction correctly modulated parameters out of 45-58 total)” value in experiment [6] worked out at 0.45. Also, in experiment [7], the TF score was determined as 1. For the same compound, in experiment [8], the PAI-1 score was 1, the MMP-1 score stood at 0 and the EGFR score turned out to be 0.
`CCN(CC)CCNc1ccc(CO)c2sc3ccccc3c(=O)c12` [Hycanthone] came in with a PAI-1 score in experiment [1] of 1. In addition, in experiment [2], the uPA score is reported as 0, the PAI-1 score stood at 1 and the EGFR score amounted to 0. Also, in experiment [3], the HLA-DR score stood at 0, the MMP-1 score is listed as 0, the uPA score came out at 0 and the PAI-1 score turned out to be 1. Further, the EGFR score in experiment [3] is given as 0. Moreover, in experiment [4], the HLA-DR score worked out at 0 and the uPAR score was 0. The MMP-1 score in experiment [5] is 0. In addition, the “Score (Fraction correctly modulated parameters out of 45-58 total)” value in experiment [6] was 0.28. The TF score in experiment [7] was 1. Also, in experiment [8], the PAI-1 score turned out to be 1, the MMP-1 score was 0 and the EGFR score is listed as 0.
In turn, `CCCCN(CCCC)CCC(O)c1cc2c(Cl)cc(Cl)cc2c2cc(C(F)(F)F)ccc12` (stereo not drawn) [Halofantrine] came in with a PAI-1 score in experiment [1] of 1. In experiment [2], the uPA score is 0, the PAI-1 score came out at 0 and the EGFR score turned out to be 0. In experiment [3], the HLA-DR score amounted to 0, the MMP-1 score is 1, the uPA score is 0 and the PAI-1 score amounted to 0. Besides, the EGFR score in experiment [3] is listed as 0. In addition, in experiment [4], the HLA-DR score is given as 0 and the uPAR score is 0. Moreover, in experiment [5], the MMP-1 score was determined as 0. Moreover, the “Score (Fraction correctly modulated parameters out of 45-58 total)” value in experiment [6] is listed as 0.27. Moreover, the TF score in experiment [7] stood at 0. For the same compound, in experiment [8], the PAI-1 score is listed as 1, the MMP-1 score came to 0 and the EGFR score came to 0.
`Cc1c(Cl)cccc1Nc1ccccc1C(=O)O` [Tolfenamic Acid] came in with a PAI-1 score in experiment [1] of 1. Moreover, in experiment [2], the uPA score turned out to be 0, the PAI-1 score is on record as 0 and the EGFR score was 0. Moreover, in experiment [3], the HLA-DR score came to 0, the MMP-1 score is listed as 1, the uPA score worked out at 0 and the PAI-1 score is recorded as 1. The EGFR score in experiment [3] is 0. In experiment [4], the HLA-DR score was 0 and the uPAR score is 0. Further, the MMP-1 score in experiment [5] turned out to be 1. Also, in experiment [6], the “Score (Fraction correctly modulated parameters out of 45-58 total)” value is 0.33. Also, in experiment [7], the TF score was 0. In addition, in experiment [8], the PAI-1 score was 0, the MMP-1 score turned out to be 0 and the EGFR score is recorded as 0.
Consider `O=C(O)c1ccccc1Nc1cccc(C(F)(F)F)c1` [Flufenamic Acid], for which the PAI-1 score was 1 in experiment [1], 1 in experiment [2], 1 in experiment [3] and 0 in experiment [8]. Moreover, the uPA score in experiment [2] and in experiment [3] was 0 each time. The EGFR score in experiment [2], in experiment [3] and in experiment [8] was 0 in each case. The HLA-DR score in experiment [3] and in experiment [4] was 0 throughout. Also, the MMP-1 score in experiment [3] was found to be 0; in experiment [5], 1; in experiment [8] it was 0. In experiment [4], the uPAR score was 0. Moreover, the “Score (Fraction correctly modulated parameters out of 45-58 total)” value in experiment [6] is recorded as 0.28. For the same compound, the TF score in experiment [7] worked out at 0.
